Entries after “also recorded” stand apart in the source; their conditions may differ.
Columns and labels:
Type in all cases: physicochemical
[1] = MB (moisture balance) of the crystalline compound from ethyl acetate; settings: crystallized from ethyl acetate
Description: Ethyl acetate was added to amorphous (3Z,5S)-5-(hydroxymethyl)-1-[(2′-methyl-1,1′-biphenyl-4-yl)carbonyl]pyrrolidin-3-one O-methyloxime. The suspension was sonicated in ambient bath tor 60 minutes to provide a clear solution that was further sonicated and cooled over 10 minutes. The clear solution was placed in the freezer for 4 days. The solvent was decanted and the solid was washed with hexane, then dried under nitrogen flow for 30 minutes. The resulting solid was analyzed by XRPD and confirmed to be crystalline (3Z,5S)-5-(hydroxymethyl)-1-[(2′-methyl-1,1′-biphenyl-4-yl)carbonyl]pyrrolidin-3-one O-methyloxime. FIGS. 7 and 9 are the DSC and TGA curves, respectively, obtained front testing this sample.

[2] = Vacuum-drying of the crystalline compound, XRPD comparison (FIG. 2); settings: vacuum-drying at about 45° C. for about 65 hours; crystallized from diethyl ether
Description: “After crystallization” means after preparation of the solid and drying at ambient temperature to about 45° C.
23 mg of the solid was then further vacuum-dried at 45° C. for an additional 65 hours. The resulting solid was analyzed by XRPD and confirmed to be the crystalline compound.

[3] = Comparative stability study: slurries stirred in pH 7 phosphate buffer (USP) at 25° C., observation and XRPD; settings: for XRPD pattern of solids after stirring in pH 7 buffer: stirred 24 hours at 25° C., solids air dried overnight (FIG. 4, FIG. 5)
Description: Slurries of crystalline (3Z,5S)-5-(hydroxymethyl)-1-[(2′-methyl-1,1′-biphenyl-4-yl)carbonyl]pyrrolidin-3-one O-methyloxime and amorphous (3Z,5S)-5-(hydroxymethyl)-1-[(2′-methyl-1,1′-biphenyl-4-yl)carbonyl]pyrrolidin-3-one O-methyloxime were prepared by weighing directly into vials 100 mg of crystalline or amorphous material, About 3 mL of pH 7 phosphate buffer USP was added to each sample. Samples of each of the slurries were stirred in pH 7 phosphate buffer (USP) at 25° C. for 24 hours. At the end of 24 hours, the solvent was removed from the sample by pipetting out and solids allowed to air dry in the fumehood overnight. Solids were then submitted for XRPD analysis. Both the samples first appeared as white powders. Pictures of the samples were taken at time points corresponding to 0.5 min, 15 min, 1 hour, 3 hours and 24 hours after adding the pH 7 phosphate buffer.

[4] = Solid stress experiments (humidity, temperature, pressure, grinding, milling; XRPD)
Description: Solid stress experiments were conducted on crystalline (3Z,5S)-5-(hydroxymethyl)-1-[(2′-methyl-1,1′-biphenyl-4-yl)carbonyl]pyrrolidin-3-one O-methyloxime and amorphous (3Z,5S)-5-(hydroxymethyl)-1-[(2′-methyl-1,1′-biphenyl-4-yl)carbonyl]pyrrolidin-3-one O-methyloxime and the results shown below in Tables 8 and 9. […] Stressing at 97% RH for the same time caused the material to deliquesce.

[5] = Comparative stability study: slurries stirred in pH 7 phosphate buffer (USP) at 25° C., observation and XRPD; settings: in pH 7 phosphate buffer at 25° C., T = 5 min
[6] = 75% RH, amorphous starting material
[7] = 10,000 psi, 1 minute, crystallized from Diethyl Ether
[8] = Ether stress, solid in solvent at ambient, 3 days (slurry)

In the case of CO/N=C1/C[C@@H](CO)N(C(=O)c2ccc(-c3ccccc3C)cc2)C1 [(3Z,5S)-5-(hydroxymethyl)-1-[(2′-methyl-1,1′-biphenyl-4-yl)carbonyl]pyrrolidin-3-one O-methyloxime], the “weight gain from 5% RH to 95% RH” value ([1]; MB (moisture balance)) is reported as 3.25% weight gain from 5% RH to 95% RH, the “weight loss from 95% RH to 5% RH” value ([1]; MB (moisture balance)) is reported as 1.44% weight loss from 95% RH to 5% RH and the “weight loss upon equilibration at 5% RH” value ([1]; MB (moisture balance)) is reported as 0.20% weight loss upon equilibration at 5% RH. The “Post MB XRPD” value ([1]; after moisture balance) was “Crystalline form and Amorphous”, the “solid form by XRPD after vacuum-drying” value [2] was “does not change the solid form” and the Observation of sample ([3]; Before adding buffer, listed as Amorphous form) was “White power”. For the same compound, the Observation of sample ([3]; Before adding buffer, listed as Crystalline compound) was “White powder”, the Observation of sample ([3]; in pH 7 phosphate buffer at 25° C., T = 0, listed as Crystalline compound) was “White powder dispersed” and the Observation of sample ([3]; in pH 7 phosphate buffer at 25° C., T = 15 min, listed as Amorphous (3Z,5S)-5-(hydroxymethyl)-1-[(2-methyl-1,1′-biphenyl-4-yl)carbonyl]pyr) was “opaque sticky material”. The Observation of sample ([3]; in pH 7 phosphate buffer at 25° C., T = 15 min, listed as Amorphous form) was “Opaque sticky round lump”, the Observation of sample ([3]; in pH 7 phosphate buffer at 25° C., T = 15 min, listed as Crystalline compound) was “White powder dispersed” and the Observation of sample ([3]; in pH 7 phosphate buffer at 25° C., T = 1 hour, listed as Amorphous form) was “Opaque sticky round lump”. For the same compound, the Observation of sample ([3]; in pH 7 phosphate buffer at 25° C., T = 1 hour, listed as Crystalline compound) was “White solid round lump,”, the Observation of sample ([3]; in pH 7 phosphate buffer at 25° C., T = 1 hour, listed as crystalline (3Z,5S)-5-(hydroxymethyl)-1-[(2′-methyl-1,1-biphenyl-4-yl)carbonyl]p) was “white sticky material” and the Observation of sample ([3]; in pH 7 phosphate buffer at 25° C., T = 3 hours, listed as Amorphous form) was “Opaque sticky material”. For the same compound, the Observation of sample ([3]; in pH 7 phosphate buffer at 25° C., T = 3 hours, listed as Crystalline compound) was “White sticky material”, the Observation of sample ([3]; in pH 7 phosphate buffer at 25° C., T = 24 hours, listed as Amorphous form) was “Opaque sticky material” and the Observation of sample ([3]; in pH 7 phosphate buffer at 25° C., T = 24 hours, listed as Crystalline compound) was “White sticky material”. The “XRPD pattern of solids after stirring in pH 7 buffer” value [3] was “peaks consistent with those seen in the powder pattern of crystalline”, the “XRPD pattern of solids after stirring in pH 7 buffer” value ([3]; listed as amorphous (3Z,5S)-5-(hydroxymethyl)-1-[(2-methyl-1,1′-biphenyl-4-yl)carbonyl]pyr) was “presence of amorphous phase” and the Habit/Description ([4]; 40° C., 10 days) was “Rounded chunks”. The “XRPD Result” value ([4]; 40° C., 10 days) was “Amorphous”, the Habit/Description ([4]; 40° C./75% RH, 1 day) was “Oil drops” and the “XRPD Result” value ([4]; 1 minute grind (by hand), crystallized from Diethyl Ether) was “mixture of the crystalline compound and the amorphous compound; also recorded: Crystalline form”. The Habit/Description ([4]; 1 minute grind, crystallized from Diethyl Ether) was “White Solid”, the Habit/Description ([4]; 70° C., 1 day) was “Oil puddle” and the Habit/Description ([4]; 70° C., 6 days) was “Rounded chunks, clear oil drops”. The “XRPD Result” value ([4]; 70° C., 6 days) was “Amorphous”, the “XRPD Result” value ([4]; 75% RH, 3 days, crystallized from Ethyl Acetate) was “remained unchanged; also recorded: Crystalline form” and the weight gain ([4]; 75% RH, after 1 day) was 2.5% weight gain after 1 day. The weight gain ([4]; 75% RH, after 5 days) was 3.7% weight gain after 5 days, the weight gain ([4]; 75% RH, after 12 days) was 6.6% weight gain after 12 days and the weight gain ([4]; 75% RH, after 20 days) was 2.9% weight gain after 20 days. The Habit/Description [4, 6] was “White jagged flakes, chunks, no”, the “XRPD Result” value [4, 6] was “Amorphous” and the Habit/Description ([4]; 97% RH, 3 days, amorphous starting material) was “Deliquesced”. The Habit/Description ([4]; 97% RH, 3 days, crystallized from Ethyl Acetate) was “Deliquesced”, the Habit/Description [4, 7] was “White Solid” and the “XRPD Result” value [4, 7] was “remained in crystalline form”. The Habit/Description [4, 8] was “White chunks, bits”, the “XRPD Result” value [4, 8] was “Amorphous” and the Habit/Description ([4]; Milling with 10μL toluene, after 10 minutes) was “Stick gum like solid after 10”. The Habit/Description ([4]; Milling with 10μL toluene, by 70 minutes) was “minutes, sticky film by 70 minutes”, the Habit/Description ([4]; Milling with 25 μL water, ~10 minutes) was “Sticky gum-like solid” and the Habit/Description ([4]; Solid wet with ethyl ether, after 1 day at ambient) was “Chunks, few areas of birefringence”. For the same compound, the Habit/Description ([4]; Solid wet with ethyl ether, after 5 days ambient) was “Chunks, few areas with extinguish”, the Observation of sample ([5]; listed as Amorphous form) was “Thick white sticky mass” and the Observation of sample ([5]; listed as Crystalline compound) was “White powder dispersed”.

Source: US9718772B2, “Crystalline (3Z,5S)-5-(hydroxymethyl)-1-[(2′-methyl-1,1′-biphenyl-4-yl)carbonyl]pyrrolidin-3-one O-methyloxime, and methods of using the same” (ObsEva SA, priority 2014, dated 2017)
